One data set addresses CYP3A4 (Homo sapiens, UniProt P08684). The settings on record: human hepatocytes and microsomes.
The subject of data set [1] is lymphocyte migration toward I-TAC. Nature of the data set: Lymphocyte migration toward I-TAC. It counts as cell-based. As to conditions: 100% human plasma, read-out: Migration to ITAC IC50 (nM) 100% Plasma.
For data set [2], the system named is cellular migration into the lung. Nature of the data set: Cellular migration into the lung following bleomycin challenge. The format is in vivo. As to conditions: following bleomycin challenge (FIG. 1).
The target of data set [3] is T1, CXCR3 (Homo sapiens, UniProt P49682).
T1 construct: endogenous in cells
T1 sequence (P49682 1-368): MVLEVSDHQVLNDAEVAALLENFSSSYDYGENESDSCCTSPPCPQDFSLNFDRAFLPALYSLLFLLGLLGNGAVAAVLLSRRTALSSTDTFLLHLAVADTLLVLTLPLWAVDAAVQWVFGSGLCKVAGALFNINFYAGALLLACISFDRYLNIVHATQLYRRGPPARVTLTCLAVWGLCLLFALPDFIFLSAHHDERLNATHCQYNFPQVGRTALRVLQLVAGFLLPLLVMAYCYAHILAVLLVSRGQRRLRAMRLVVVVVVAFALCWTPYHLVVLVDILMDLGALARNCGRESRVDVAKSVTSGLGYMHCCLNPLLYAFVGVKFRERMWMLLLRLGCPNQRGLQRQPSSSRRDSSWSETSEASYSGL
Nature of the data set: 125I-I-TAC binding assay (CXCR3 binding). The settings on record: 50% human plasma; primary, activated human lymphocytes. The protocol:
(§1) Unless otherwise noted, all reagents used are available from commercial sources (e.g., Sigma). Test compounds are diluted in DMSO to a concentration that is 40-times the intended final assay concentration; 5 μL are transferred to each well of a 96-well flat-bottomed polypropylene plate (e.g., from Greiner, Inc.). The cells were resuspended in assay buffer (25 mM Hepes, 80 mM NaCl, 1 mM CaCl2, 5 mM MgCl2, 0.2% bovine serum albumin, pH 7.1, stored at 4° C.) at 5 million cells per mL; 100 μL of this cell suspension is then transferred to each well of a 96-well plate containing the diluted test compounds. ^125I-labelled chemokine (purchased from commercial sources, e.g., Amersham, PE Life Sciences) is diluted in assay buffer to a concentration of approximately 60 pM; 100 μL of this chemokine solution is transferred to each well of a 96-well plate containing compounds and cell suspension. The plates are sealed with commercially available foil plate seals (e.g., from E&K Scientific), and stored at 4° C. for 2 to 4 h, shaking gently. […] The plates are counted on a scintillation counter, such as a Packard TopCount. […] Data were analyzed using commercially available software (e.g., Excel from Microsoft, Prism from GraphPad Software Inc.).

The target in data set [4] is T1, CXCR3. Nature of the data set: [125I]-IP-10 binding assay (CXCR3 binding). On the procedure: as §1
Data set [5] concerns the target T1, CXCR3. Nature of the data set: HWB receptor occupancy (500 ng/ml ITAC). It counts as cell-based.
Data set [6] can be described thus: Multiple dosing of AMG 487 in humans. It counts as in vivo, human. The text has this: Thus, there remains a need to identify a suitable clinical candidate devoid of the unpredicted accumulation seen with AMG 487. Such compounds are provided herein.

Chain of CYP3A4 (P08684 whole entry): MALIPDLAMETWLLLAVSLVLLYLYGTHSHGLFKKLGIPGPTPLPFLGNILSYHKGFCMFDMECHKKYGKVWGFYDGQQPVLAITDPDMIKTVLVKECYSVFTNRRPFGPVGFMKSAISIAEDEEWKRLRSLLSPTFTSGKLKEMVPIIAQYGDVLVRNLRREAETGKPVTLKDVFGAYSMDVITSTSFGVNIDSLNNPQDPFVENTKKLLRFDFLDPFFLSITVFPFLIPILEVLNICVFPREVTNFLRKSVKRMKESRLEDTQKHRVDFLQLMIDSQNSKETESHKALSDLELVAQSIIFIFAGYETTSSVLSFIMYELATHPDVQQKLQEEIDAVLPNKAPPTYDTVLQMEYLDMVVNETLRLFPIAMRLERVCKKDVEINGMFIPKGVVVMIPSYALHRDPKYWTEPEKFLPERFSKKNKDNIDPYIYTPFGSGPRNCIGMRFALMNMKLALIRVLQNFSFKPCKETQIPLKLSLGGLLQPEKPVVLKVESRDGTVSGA

Take `CC(c1nc2ncccc2c(=O)n1-c1ccc(O)cc1)N(Cc1cccnc1)C(=O)Cc1ccc(OC(F)(F)F)cc1` (stereo not drawn) [Compound M2]: the CYP3A4 inhibition entry on CYP3A4 is “time-dependent inhibitor of CYP3A4”.

In the case of `C[C@H](c1nc2ncccc2c(=O)n1-c1ccc(Cl)cc1)N(CC1CCS(=O)(=O)CC1)C(=O)Cc1ccc(C(F)(F)F)c(F)c1` [Compound 1], the IC50 stood at 65 ± 14 nM in data set [1]; 51 ± 20 nM on CXCR3 [3]; 12 ± 5 nM at CXCR3 [4] ([125I]-IP-10 Binding IC50 (nM) 50% Plasma, 50% human plasma, primary, activated human lymphocytes); 7 ± 2 nM on CXCR3 [4] (buffer, read-out: [125I]-IP-10 Binding IC50 (nM) Buffer); 9.8 ± 4.4 nM on CXCR3 [5]. Also, the “Cellular migration into the lung” value in data set [2] was “inhibits cellular migration into the lung”.

Regarding `CCOc1ccc(-n2c([C@@H](C)N(Cc3cccnc3)C(=O)Cc3ccc(OC(F)(F)F)cc3)nc3ncccc3c2=O)cc1` [AMG 487, reference compound], in data set [1], the IC50 is 346 ± 123 nM. Further, the “Accumulation of the compound upon multiple dosing” value in data set [6] is on record as “dose-dependent accumulation”.

These data come from patent publication US20110034487A1, “CXCR3 ANTAGONISTS” (AMGEN INC., priority 2009, published 2011).
